From patent US20250177566A1, “USE OF CHEMICAL EPIGENETIC MODIFIERS TO MODULATE GENE EXPRESSION” (The University of North Carolina at Chapel Hill, priority 2022, published 2025)
Like-named read-outs stand apart in the source and are kept apart here.

What was measured:
TRE3G-GFP reporter gene [1] = conditions: WT FKBP (MS2-FKBPx2), 48 hrs
Description: HCT116 cells were transfected with TRE3G-GFP, dCas9, MS2-FKPB*x2, and TRE3G gRNA or NT gRNA. After 48 hrs of 10 nM SLF*-CEMa treatment, flow cytometry was performed and mean fluorescent value was collected. […] TRE3G-GFP, dCas9, MS2-FKBP*2, TRE3G gRNA or NT gRNA were transfected into HCT116 cells. The media was changed to media with 5 nM CEM207 together with 0 nM, 50 nM, 500 nM or 5000 nM of AP1867, respectively. After 48 hrs chemical exposure, flow cytometry was performed and the mean fluorescent value was measured in each group of cells. […] FIGS. 5D and 5E are dose curves of CEMa molecules activating the GFP reporter gene in HCT116 cells using WT FKBP and dCas9 as DNA binding module. HCT116 cells were transfected with dCas9, MS2-FKBPx2, TRE3G-GFP constructs, along with TRE3G gRNA or NT gRNA. Cells were treated with different concentrations of CEMa molecules for 48 hrs before flow cytometry was conducted. […] Error bars represent the standard deviation.
To better understand the activity of SLF*-CEMa in the WT FKBP-based GFP reporter assay, a similar dose-response assay was conducted in HCT116 cells transfected with dCas9 and MS2-FKBPx2 (FIGS. 1D and 1E).
Flow cytometry. All flow cytometry experiments were performed with Attune Nxt as previously described. […] Significance was determined by Student's t-test.

CXCR4 [2] = test: CXCR4 mRNA activation in HCT116 stably expressing dCas9 and MS2-FKBP*x2, qRT-PCR; format: cell-based, human
In short: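 HCT116 cells stably expressing dCas9 and MS2-FKBP*x2 with CXCR4 gRNA were treated with CEMs (screen at 5 nM; 1–50 nM range). CXCR4 mRNA measured by one-step qRT-PCR after 48 h, or at 12–96 h in time course. Reversibility tested by washout after 24 h, optionally with 20 μM AP1867.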

[3] = tested on: AAV transgene expression (firefly luciferase); test: AAV regulation with first generation CEM, dual luciferase assay, HCT116 Renilla; format: cell-based, human; conditions: FIG. 12, 50, 200, 500, 1000 nM
Text: It was investigated whether rAAV transgene expression can be epigenetically controlled. Rapid screening of CEM technology can be performed with dual liucierase assays. (FIG. 10). Briefly, a cell line can be stably transduced with Ef1a-Renilla, enabling normalization to cell number. The cells are then either infected with AAV or tranfected with plasmid and dosed with a chemical epigenetic modifier. Luminescence can then be measured with the Dual Lucieferase Reporter, commercially available from Promega. This approach is described in more detail in the methods section of the example. Gene activation can be described as normalized luciferase or fold change. A measure of total gene expression can be calculated by
Preliminary regulation of AAV with first generation CEMs is depicted in FIG. 11A. The prototype system is autogenous, saving casssette space. (FIG. 11B). […] Preliminary regulation of AAV with first generation CEMs in HEK293T Renilla cells using the cassette in FIG. 11B results are shown in FIG. 13, with multiplicity of infection (MOI)=number of viral genomes/cell.

CXCR4 [4] = test: CXCR4 mRNA activation in HCT116 stably expressing dCas9 and MS2-FKBPx2 (WT-FKBP), qRT-PCR; format: cell-based, human; conditions: FIG. 6, WT FKBP system, 48 hrs
TRE3G-GFP reporter gene [5] = test: TRE3G-GFP reporter gene activation in HCT116, dCas9 + MS2-FKBP*x2 (F36V) system, flow cytometry; format: cell-based, human; design: fold change, GFP: reference not given here; conditions: for fold change, GFP: FIG. 5C, NT gRNA, 48 hrs

In the case of COc1ccc2c(c1)C(c1ccc(Cl)cc1)=N[C@@H](CC(=O)NCc1cn(CCOCCOCCOCCNC(=O)CCSCCC[C@@H]3/C=C(\C)C[C@H](C)C[C@H](OC)[C@H]4O[C@@](O)(C(=O)C(=O)N5CCCC[C@H]5C(=O)O[C@H](/C(C)=C/[C@@H]5CC[C@@H](O)[C@H](OC)C5)[C@H](C)[C@@H](O)CC3=O)[C@H](C)C[C@@H]4OC)nn1)c1nnc(C)n1-2 [CEM87, reference compound], the “fold change, GFP (Treated vs Non-Treated)” value (TRE3G-GFP reporter gene [1]; FIG. 5D, 10 nM) is reported as 22.5 fold, the “fold change, GFP (Treated vs Non-Treated)” value (TRE3G-GFP reporter gene [1]; FIG. 5D, 25 nM) is reported as 23.1 fold and the “fold change, GFP (Treated vs Non-Treated)” value (TRE3G-GFP reporter gene [1]; FIG. 5D, 50 nM) is reported as 22.1 fold. The “fold change, GFP (Treated vs Non-Treated)” value (TRE3G-GFP reporter gene [1]; FIG. 5D, 100 nM) was 22.0 fold, the “fold change, GFP (Treated vs Non-Treated)” value (TRE3G-GFP reporter gene [1]; FIG. 5D, 200 nM) was 18.7 fold and the “fold change, GFP (Treated vs Non-Treated)” value (TRE3G-GFP reporter gene [1]; FIG. 5D, 400 nM) was 18.3 fold. For the same compound, the “fold change, GFP (Treated vs Non-Treated)” value (TRE3G-GFP reporter gene [1]; FIG. 5E, 10 nM) was 1.0 fold, the “fold change, GFP (Treated vs Non-Treated)” value (TRE3G-GFP reporter gene [1]; FIG. 5E, 25 nM) was 1.1 fold and the “fold change, GFP (Treated vs Non-Treated)” value (TRE3G-GFP reporter gene [1]; FIG. 5E, 50 nM) was 1.1 fold. For the same compound, the “fold change, GFP (Treated vs Non-Treated)” value (TRE3G-GFP reporter gene [1]; FIG. 5E, 100 nM) was 1.2 fold, the “fold change, GFP (Treated vs Non-Treated)” value (TRE3G-GFP reporter gene [1]; FIG. 5E, 200 nM) was 1.1 fold and the “fold change, GFP (Treated vs Non-Treated)” value (TRE3G-GFP reporter gene [1]; FIG. 5E, 400 nM) was 1.2 fold. The “fold change, CXCR4 mRNA (Treated vs Non-Treated)” value (CXCR4 [2]; FIG. 2C, 5 nM, 48 hrs) was 1.5 fold, the “fold change, CXCR4 mRNA (CEM Treated vs Non-Treated)” value (CXCR4 [2]; FIG. 2D, CXCR4 gRNA, 1 nM, 48 hrs) was 1.16 fold and the “fold change, CXCR4 mRNA (CEM Treated vs Non-Treated)” value (CXCR4 [2]; FIG. 2D, CXCR4 gRNA, 5 nM, 48 hrs) was 1.03 fold. For the same compound, the “fold change, CXCR4 mRNA (CEM Treated vs Non-Treated)” value (CXCR4 [2]; FIG. 2D, CXCR4 gRNA, 25 nM, 48 hrs) was 1.19 fold, the “fold change, CXCR4 mRNA (CEM Treated vs Non-Treated)” value (CXCR4 [2]; FIG. 2D, CXCR4 gRNA, 50 nM, 48 hrs) was 1.53 fold and the “fold change, CXCR4 mRNA (CEM Treated vs Non-Treated)” value (CXCR4 [2]; FIG. 2D, NT gRNA, 1 nM, 48 hrs) was 0.85 fold. The “fold change, CXCR4 mRNA (CEM Treated vs Non-Treated)” value (CXCR4 [2]; FIG. 2D, NT gRNA, 5 nM, 48 hrs) was 0.81 fold, the “fold change, CXCR4 mRNA (CEM Treated vs Non-Treated)” value (CXCR4 [2]; FIG. 2D, NT gRNA, 25 nM, 48 hrs) was 0.91 fold and the “fold change, CXCR4 mRNA (CEM Treated vs Non-Treated)” value (CXCR4 [2]; FIG. 2D, NT gRNA, 50 nM, 48 hrs) was 1.18 fold. The “activation of CXCR4 mRNA expression” value (CXCR4 [2]; FIG. 2D, all concentrations tested (1-50 nM), 48 hours) was “no significant activation”, the “luminescence, fold change compared to no treatment” value [3] was “dose dependent increase in luminscence” and the “fold change, CXCR4 mRNA (CXCR4 gRNA vs NT gRNA)” value (CXCR4 [4]; 25 nM) was 21.5 fold. The “fold change, CXCR4 mRNA (CXCR4 gRNA vs NT gRNA)” value (CXCR4 [4]; 50 nM) was 16.5 fold, the “fold change, CXCR4 mRNA (CXCR4 gRNA vs NT gRNA)” value (CXCR4 [4]; 200 nM) was 19.0 fold and the “concentration at which significant GFP activation was first achieved” value (TRE3G-GFP reporter gene [5]; FIG. 1E, FKBP* system, TRE3G gRNA, 48 hours) was 50 nM. For the same compound, the “fold change, GFP (Treated vs Non-Treated)” value (TRE3G-GFP reporter gene [5]; FIG. 1E, TRE3G gRNA, 0.25 nM, 48 hours) was 1.1 fold, the “fold change, GFP (Treated vs Non-Treated)” value (TRE3G-GFP reporter gene [5]; FIG. 1E, TRE3G gRNA, 0.5 nM, 48 hours) was 1.1 fold and the “fold change, GFP (Treated vs Non-Treated)” value (TRE3G-GFP reporter gene [5]; FIG. 1E, TRE3G gRNA, 0.75 nM, 48 hours) was 1.1 fold. For the same compound, the “fold change, GFP (Treated vs Non-Treated)” value (TRE3G-GFP reporter gene [5]; FIG. 1E, TRE3G gRNA, 1 nM, 48 hours) was 1.1 fold, the “fold change, GFP (Treated vs Non-Treated)” value (TRE3G-GFP reporter gene [5]; FIG. 1E, TRE3G gRNA, 2.5 nM, 48 hours) was 1.2 fold and the “fold change, GFP (Treated vs Non-Treated)” value (TRE3G-GFP reporter gene [5]; FIG. 1E, TRE3G gRNA, 5 nM, 48 hours) was 1.1 fold. For the same compound, the “fold change, GFP (Treated vs Non-Treated)” value (TRE3G-GFP reporter gene [5]; FIG. 1E, TRE3G gRNA, 7.5 nM, 48 hours) was 1.1 fold, the “fold change, GFP (Treated vs Non-Treated)” value (TRE3G-GFP reporter gene [5]; FIG. 1E, TRE3G gRNA, 10 nM, 48 hours) was 1.2 fold and the “fold change, GFP (Treated vs Non-Treated)” value (TRE3G-GFP reporter gene [5]; FIG. 1E, TRE3G gRNA, 25 nM, 48 hours) was 1.6 fold. The “fold change, GFP (Treated vs Non-Treated)” value (TRE3G-GFP reporter gene [5]; FIG. 1E, TRE3G gRNA, 50 nM, 48 hours) was 5.2 fold, the “fold change, GFP (Treated vs Non-Treated)” value (TRE3G-GFP reporter gene [5]; FIG. 1E, TRE3G gRNA, 75 nM, 48 hours) was 7.8 fold and the “fold change, GFP (Treated vs Non-Treated)” value (TRE3G-GFP reporter gene [5]; FIG. 1E, TRE3G gRNA, 100 nM, 48 hours) was 9.7 fold. For the same compound, the “fold change, GFP” value (TRE3G-GFP reporter gene [5]; 0.25 nM) was 1.1 fold, the “fold change, GFP” value (TRE3G-GFP reporter gene [5]; 0.5 nM) was 1.1 fold and the “fold change, GFP” value (TRE3G-GFP reporter gene [5]; 0.75 nM) was 1.0 fold. The “fold change, GFP” value (TRE3G-GFP reporter gene [5]; 1 nM) was 1.0 fold, the “fold change, GFP” value (TRE3G-GFP reporter gene [5]; 2.5 nM) was 1.1 fold and the “fold change, GFP” value (TRE3G-GFP reporter gene [5]; 5 nM) was 1.0 fold. The “fold change, GFP” value (TRE3G-GFP reporter gene [5]; 7.5 nM) was 1.0 fold, the “fold change, GFP” value (TRE3G-GFP reporter gene [5]; 10 nM) was 1.0 fold and the “fold change, GFP” value (TRE3G-GFP reporter gene [5]; 25 nM) was 1.0 fold. The “fold change, GFP” value (TRE3G-GFP reporter gene [5]; 50 nM) was 1.0 fold, the “fold change, GFP” value (TRE3G-GFP reporter gene [5]; 75 nM) was 1.0 fold and the “fold change, GFP” value (TRE3G-GFP reporter gene [5]; 100 nM) was 1.0 fold.
